Measured values published in BindingDB's records for doi:10.1021/jm00072a019 (J. Uriach & Cía., 1993).

assay: Inhibition of PAF-induced platelet aggregation

| Structure (SMILES) | IC50 [nM] |
| --- | --- |
| C#CC(c1cccnc1C)N1CCN(C(=O)CNC(c2ccccc2)c2ccccc2)CC1 (stereo not drawn) [2-(Benzhydryl-amino)-1-{4-[1-(2-methyl-pyridin-3-yl)-prop-2-ynyl]-piperazin-1-yl}-ethanone] | 860 |
| CNC(=O)C(CC(=O)N1CCN(C(C#N)c2cccnc2C)CC1)c1ccccc1 (stereo not drawn) [4-{4-[Cyano-(2-methyl-pyridin-3-yl)-methyl]-piperazin-1-yl}-N-methyl-4-oxo-2-phenyl-butyramide] | 15200 |
| Cc1ncccc1C(C#N)N1CCN(C(=O)CC(NCc2cccnc2)c2ccccc2)CC1 (stereo not drawn) [(2-Methyl-pyridin-3-yl)-(4-{3-phenyl-3-[(pyridin-3-ylmethyl)-amino]-propionyl}-piperazin-1-yl)-acetonitrile] | 75 |
| Cc1ncccc1C(C#N)N1CCN(C(=O)CC(Nc2ccccc2)c2ccccc2)CC1 (stereo not drawn) [(2-Methyl-pyridin-3-yl)-[4-(3-phenyl-3-phenylamino-propionyl)-piperazin-1-yl]-acetonitrile] | 28 |
| C#CCNC(CC(=O)N1CCN(C(C#N)c2cccnc2C)CC1)c1ccccc1 (stereo not drawn) [(2-Methyl-pyridin-3-yl)-[4-(3-phenyl-3-prop-2-ynylamino-propionyl)-piperazin-1-yl]-acetonitrile] | 270 |
| Cc1ncccc1C(C#N)N1CCN(C(=O)CC(c2ccccc2)N2CCOC2=O)CC1 (stereo not drawn) [(2-Methyl-pyridin-3-yl)-{4-[3-(2-oxo-oxazolidin-3-yl)-3-phenyl-propionyl]-piperazin-1-yl}-acetonitrile] | 63 |
| Cc1ncccc1C(C#N)N1CCN(C(=O)CC(c2ccccc2)N2CCCC2=O)CC1 (stereo not drawn) [(2-Methyl-pyridin-3-yl)-{4-[3-(2-oxo-pyrrolidin-1-yl)-3-phenyl-propionyl]-piperazin-1-yl}-acetonitrile] | 30 |
| Cc1ncccc1C(C#N)N1CCN(C(=O)CC(NC(=O)OCC(C)C)c2ccccc2)CC1 (stereo not drawn) [(3-{4-[Cyano-(2-methyl-pyridin-3-yl)-methyl]-piperazin-1-yl}-3-oxo-1-phenyl-propyl)-carbamic acid isobutyl ester] | 36 |
| COC(=O)NC(CC(=O)N1CCN(C(C#N)c2cccnc2C)CC1)c1ccccc1 (stereo not drawn) [(3-{4-[Cyano-(2-methyl-pyridin-3-yl)-methyl]-piperazin-1-yl}-3-oxo-1-phenyl-propyl)-carbamic acid methyl ester] | 41 |
| Cc1ncccc1C(C#N)N1CCN(C(=O)CC(NC(=O)Oc2ccccc2)c2ccccc2)CC1 (stereo not drawn) [(3-{4-[Cyano-(2-methyl-pyridin-3-yl)-methyl]-piperazin-1-yl}-3-oxo-1-phenyl-propyl)-carbamic acid phenyl ester] | 16 |
| Cc1ncccc1C(C#N)N1CCN(C(=O)CC(NC(=O)OC(C)(C)C)c2ccccc2)CC1 (stereo not drawn) [(3-{4-[Cyano-(2-methyl-pyridin-3-yl)-methyl]-piperazin-1-yl}-3-oxo-1-phenyl-propyl)-carbamic acid tert-butyl ester] | 56 |
| Cc1ncccc1C(C#N)N1CCN(C(=O)CC(NC(N)=O)c2ccccc2)CC1 (stereo not drawn) [(3-{4-[Cyano-(2-methyl-pyridin-3-yl)-methyl]-piperazin-1-yl}-3-oxo-1-phenyl-propyl)-urea] | 470 |
| COC(=O)N(Cc1ccccc1)C(CC(=O)N1CCN(C(C#N)c2cccnc2C)CC1)c1ccccc1 (stereo not drawn) [Benzyl-(3-{4-[cyano-(2-methyl-pyridin-3-yl)-methyl]-piperazin-1-yl}-3-oxo-1-phenyl-propyl)-carbamic acid methyl ester] | 68 |
| CC(=O)NC(CC(=O)N1CCN(C(C#N)c2cccnc2C)CC1)c1ccccc1 (stereo not drawn) [N-(3-{4-[Cyano-(2-methyl-pyridin-3-yl)-methyl]-piperazin-1-yl}-3-oxo-1-phenyl-propyl)-acetamide] | 31 |
| Cc1ncccc1C(C#N)N1CCN(C(=O)CN(C=O)C(c2ccccc2)c2ccccc2)CC1 (stereo not drawn) [N-Benzhydryl-N-(2-{4-[cyano-(2-methyl-pyridin-3-yl)-methyl]-piperazin-1-yl}-2-oxo-ethyl)-formamide] | 30 |
| Cc1ncccc1C(C#N)N1CCN(C(=O)CC(NC(=O)N2CCCC2)c2ccccc2)CC1 (stereo not drawn) [Pyrrolidine-1-carboxylic acid (3-{4-[cyano-(2-methyl-pyridin-3-yl)-methyl]-piperazin-1-yl}-3-oxo-1-phenyl-propyl)-amide] | 64 |
| Cc1ncccc1C(C#N)N1CCN(C(=O)COC(c2ccccc2)c2ccccc2)CC1 (stereo not drawn) [[4-(2-Benzhydryloxy-acetyl)-piperazin-1-yl]-(2-methyl-pyridin-3-yl)-acetonitrile] | 42 |
| Cc1ncccc1C(C#N)N1CCN(C(=O)CSC(c2ccccc2)c2ccccc2)CC1 (stereo not drawn) [[4-(2-Benzhydrylsulfanyl-acetyl)-piperazin-1-yl]-(2-methyl-pyridin-3-yl)-acetonitrile] | 79 |
| Cc1ncccc1C(C#N)N1CCN(C(=O)CNC(c2ccc(F)cc2)c2ccc(F)cc2)CC1 (stereo not drawn) [[4-(2-{[Bis-(4-fluoro-phenyl)-methyl]-amino}-acetyl)-piperazin-1-yl]-(2-methyl-pyridin-3-yl)-acetonitrile] | 150 |

The remaining compounds from weak to strong by IC50, led by results:

| IC50 [nM] | Structure (SMILES) |
| --- | --- |
| 26 | Cc1ncccc1C(C#N)N1CCN(C(=O)C=C(c2ccccc2)c2ccccc2)CC1 (stereo not drawn) [[4-(3,3-Diphenyl-acryloyl)-piperazin-1-yl]-(2-methyl-pyridin-3-yl)-acetonitrile] |
| 22 | Cc1ncccc1C(C#N)N1CCN(C(=O)CC(NC(=O)OCc2ccccc2)c2ccccc2)CC1 (stereo not drawn) [(3-{4-[Cyano-(2-methyl-pyridin-3-yl)-methyl]-piperazin-1-yl}-3-oxo-1-phenyl-propyl)-carbamic acid benzyl ester] |
| 20 | COC(=O)N(C)C(CC(=O)N1CCN(C(C#N)c2cccnc2C)CC1)c1ccccc1 (stereo not drawn) [(3-{4-[Cyano-(2-methyl-pyridin-3-yl)-methyl]-piperazin-1-yl}-3-oxo-1-phenyl-propyl)-methyl-carbamic acid methyl ester] |
| 20 | CC(=O)N(CC(=O)N1CCN(C(C#N)c2cccnc2C)CC1)C(c1ccccc1)c1ccccc1 (stereo not drawn) [N-Benzhydryl-N-(2-{4-[cyano-(2-methyl-pyridin-3-yl)-methyl]-piperazin-1-yl}-2-oxo-ethyl)-acetamide] |
| 18 | Cc1ncccc1C(C#N)N1CCN(C(=O)CC(c2ccccc2)c2ccccc2)CC1 (stereo not drawn) [[4-(3,3-Diphenyl-propionyl)-piperazin-1-yl]-(2-methyl-pyridin-3-yl)-acetonitrile] |
| 14 | CCOC(=O)NC(CC(=O)N1CCN(C(C#N)c2cccnc2C)CC1)c1ccccc1 (stereo not drawn) [(3-{4-[Cyano-(2-methyl-pyridin-3-yl)-methyl]-piperazin-1-yl}-3-oxo-1-phenyl-propyl)-carbamic acid ethyl ester] |
| 12 | COC(=O)NC(CC(=O)N1CCN(C(C#N)c2cccnc2C)CC1)c1ccc(C(F)(F)F)cc1 (stereo not drawn) [[3-{4-[Cyano-(2-methyl-pyridin-3-yl)-methyl]-piperazin-1-yl}-3-oxo-1-(4-trifluoromethyl-phenyl)-propyl]-carbamic acid methyl ester] |
| 9.1 | Cc1ncccc1C(C#N)N1CCN(C(=O)CC(NC(=O)c2ccccc2)c2ccccc2)CC1 (stereo not drawn) [N-(3-{4-[Cyano-(2-methyl-pyridin-3-yl)-methyl]-piperazin-1-yl}-3-oxo-1-phenyl-propyl)-benzamide] |
| 8.9 | Cc1ncccc1C(C#N)N1CCN(C(=O)CC(NC(=O)c2cccnc2)c2ccccc2)CC1 (stereo not drawn) [N-(3-{4-[Cyano-(2-methyl-pyridin-3-yl)-methyl]-piperazin-1-yl}-3-oxo-1-phenyl-propyl)-nicotinamide] |
